Measured values as given in US20240383886A1, “Protein Tyrosine Phosphatase Degraders and Methods of Use Thereof” (CALICO LIFE SCIENCES LLC, priority 2019, published 2024).

Tests used:
PTPN2 [1] = experiment: HiBiT-Degradation B16F10.4 PTPN2; assay type: cell-based; conditions: B16F10.4 cells, 24.0 hours
PTPN2 [2] = molecular target: T1, PTPN2 (Homo sapiens, UniProt P17706); experiment: HiBiT-Degradation 293T.109 PTPN2 (Nano-Glo HiBiT Lytic Assay); assay type: cell-based; conditions: 293T.109 (HiBiT-PTPN2) cells, 24.0 hours
T1 construct: expressed in transfected cells; host or cells: 293T (293T.109 HiBiT-PTPN2 line; parental 293T WT from ATCC)
T1 sequence (P17706 1-415): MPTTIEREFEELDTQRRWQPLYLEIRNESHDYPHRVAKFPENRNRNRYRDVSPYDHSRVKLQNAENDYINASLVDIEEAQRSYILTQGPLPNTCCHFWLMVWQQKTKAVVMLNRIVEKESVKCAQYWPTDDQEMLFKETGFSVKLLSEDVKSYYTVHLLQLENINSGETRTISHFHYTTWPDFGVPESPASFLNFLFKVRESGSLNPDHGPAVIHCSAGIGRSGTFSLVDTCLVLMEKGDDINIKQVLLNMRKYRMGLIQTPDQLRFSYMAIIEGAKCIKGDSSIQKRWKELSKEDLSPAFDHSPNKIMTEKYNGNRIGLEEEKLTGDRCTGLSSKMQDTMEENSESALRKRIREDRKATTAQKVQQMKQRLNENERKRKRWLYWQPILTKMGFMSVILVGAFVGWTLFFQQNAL
Description: Dulbecco's modified Eagle medium (DMEM) without phenol red and fetal bovine serum (FBS) were purchased from Gibco (Grand Island, NY, USA). Nano-Glo® HiBIT Lytic Assay System was purchased from Promega (Madison, WI, USA). 293T.109 (HiBiT-PTPN2) cell line was generated by ectopically expressing PTPN2 with N-terminal HiBiT fusion tag in 293T WT cell line purchased from ATCC (Manassas, VA, USA). Cell culture flasks and 384-well microplates were acquired from VWR (Radnor, PA, USA).
PTPN2 degradation was determined based on quantification of luminescent signal using Nano-Glo® HiBIT Lytic Assay kit. Test compounds were added to the 384-well plate from a top concentration of 10 μM with 11 points, half log titration in duplicates. 293T.109 cells were added into 384-well plates at a cell density of 5000 cells per well. The plates were kept at 37° C. with 5% CO2 for 24 hours. The cells treated in the absence of the test compound were the negative control and the cells without Nano-Glo® HiBiT Lytic reagent were the positive control. After 24-hour incubation, Nano-Glo® HiBIT Lytic Assay reagents were added to the cells. Luminescence was acquired on EnVision™ Multilabel Reader (PerkinElmer, Santa Clara, CA, USA).

SMILES: CC(C)n1c(=O)n(C2CCC(=O)NC2=O)c2ccc(C3CCN(CC(=O)NCCOc4ccc5cc(O)c(N6CC(=O)NS6(=O)=O)c(F)c5c4)CC3)cc21 (stereo not shown) [Example 85, 2-[4-[1-(2,6-dioxo-3-piperidyl)-3-isopropyl-2-oxo-benzimidazol-5-yl]-1-piperidyl]-N-[2-[[8-fluoro-6-hydroxy-7-(1,1,4-trioxo-1,2,5-thiadiazolidin-2-yl)-2-naphthyl]oxy]ethyl]acetamide]
- DC50 (PTPN2 [1]): 200 to 1000 nM
- DC50 (PTPN2 [2]): 50 to 200 nM

SMILES: O=C(CCOCCn1cc(C2(Nc3cccc4c3C(=O)N(C3CCC(=O)NC3=O)C4=O)CC2)nn1)NCCOc1ccc2cc(O)c(N3CC(=O)NS3(=O)=O)c(F)c2c1 (stereo not shown) [Example 38]
- DC50 (PTPN2 [1]): ≥ 1000 nM
- DC50 (PTPN2 [2]): ≥ 1000 nM

SMILES: Cn1c(=O)n(C2CCC(=O)NC2=O)c2ccc(C3CCN(CC(=O)Nc4ccc5c(F)c(N6CC(=O)NS6(=O)=O)c(O)cc5c4)CC3F)cc21 (stereo not shown) [Example 182, 2-[4-[1-(2,6-dioxo-3-piperidyl)-3-methyl-2-oxo-benzimidazol-5-yl]-3-fluoro-1-piperidyl]-N-[5-fluoro-7-hydroxy-6-(1,1,4-trioxo-1,2,5-thiadiazolidin-2-yl)-2-naphthyl]acetamide]
- DC50 (PTPN2 [1]): 10 to 50 nM
- DC50 (PTPN2 [2]): 10 to 50 nM

SMILES: O=C1CCC(N2C(=O)c3cccc(NCc4cccc(C(=O)Nc5ccc6c(F)c(N7CC(=O)NS7(=O)=O)c(O)cc6c5)c4)c3C2=O)C(=O)N1 (stereo not shown) [Example 61]
- DC50 (PTPN2 [1]): ≥ 1000 nM
- DC50 (PTPN2 [2]): 200 to 1000 nM

SMILES: O=C1CCC(N2C(=O)c3cccc4c(C5CCN(CC(=O)N6CC(Oc7ccc8cc(O)c(N9CC(=O)NS9(=O)=O)c(F)c8c7)C6)CC5)ccc2c34)C(=O)N1 (stereo not shown) [Example 158, 3-[6-[1-[2-[3-[[8-fluoro-6-hydroxy-7-(1,1,4-trioxo-1,2,5-thiadiazolidin-2-yl)-2-naphthyl]oxy]azetidin-1-yl]-2-oxo-ethyl]-4-piperidyl]-2-oxo-benzo[cd]indol-1-yl]piperidine-2,6-dione]
- DC50 (PTPN2 [1]): 50 to 200 nM
- DC50 (PTPN2 [2]): 10 to 50 nM

SMILES: Cn1c(=O)n(C2CCC(=O)NC2=O)c2ccc(C3CCN(CCC(=O)Nc4ccc5c(F)c(N6CC(=O)NS6(=O)=O)c(O)cc5c4)CC3)cc21 (stereo not shown) [Example 170, N-(6-(1,1-dioxido-4-oxo-1,2,5-thiadiazolidin-2-yl)-5-fluoro-7-hydroxynaphthalen-2-yl)-3-(4-(1-(2,6-dioxopiperidin-3-yl)-3-methyl-2-oxo-2,3-dihydro-1H-benzo[d]imidazol-5-yl)piperidin-1-yl)propanamide]
- DC50 (PTPN2 [1]): 50 to 200 nM
- DC50 (PTPN2 [2]): 10 to 50 nM

SMILES: Cn1nc(C2CCC(=O)NC2=O)c2ccc(C3CCN(C(=O)Cn4cc(-c5ccc6c(F)c(N7CC(=O)NS7(=O)=O)c(O)cc6c5)cn4)CC3)cc21 (stereo not shown) [Example 79, 3-[6-[1-[2-[4-[5-fluoro-7-hydroxy-6-(1,1,4-trioxo-1,2,5-thiadiazolidin-2-yl)-2-naphthyl]pyrazol-1-yl]acetyl]-4-piperidyl]-1-methyl-indazol-3-yl]piperidine-2,6-dione]
- DC50 (PTPN2 [1]): 200 to 1000 nM
- DC50 (PTPN2 [2]): 10 to 50 nM

SMILES: O=C1CCC(N2Cc3cc(NCC(=O)N4CCC(C(=O)NCCOc5ccc6cc(O)c(N7CC(=O)NS7(=O)=O)c(F)c6c5)CC4)ccc3C2=O)C(=O)N1 (stereo not shown) [Example 35]
- DC50 (PTPN2 [1]): 200 to 1000 nM
- DC50 (PTPN2 [2]): 200 to 1000 nM

SMILES: Cn1c(=O)n(C2CCC(=O)NC2=O)c2ccc(N3CCN(CC(=O)Nc4ccc5c(F)c(N6CC(=O)NS6(=O)=O)c(O)cc5c4)CC3)cc21 (stereo not shown) [Example 159, 2-[4-[1-(2,6-dioxo-3-piperidyl)-3-methyl-2-oxo-benzimidazol-5-yl]piperazin-1-yl]-N-[5-fluoro-7-hydroxy-6-(1,1,4-trioxo-1,2,5-thiadiazolidin-2-yl)-2-naphthyl]acetamide]
- DC50 (PTPN2 [1]): 50 to 200 nM
- DC50 (PTPN2 [2]): 50 to 200 nM

SMILES: O=C(CCCCCn1cc(CNc2cccc3c2C(=O)N(C2CCC(=O)NC2=O)C3=O)nn1)NCCOc1ccc2cc(O)c(N3CC(=O)NS3(=O)=O)c(F)c2c1 (stereo not shown) [Example 47]
- DC50 (PTPN2 [1]): ≥ 1000 nM
- DC50 (PTPN2 [2]): ≥ 1000 nM

SMILES: Cn1c(=O)n(C2CCC(=O)NC2=O)c2ccc([C@H]3CC[C@@H](CNC(=O)c4ccc5c(F)c(N6CC(=O)NS6(=O)=O)c(O)cc5c4)CC3)cc21 (single isomer, unassigned) [Example 75]
- DC50 (PTPN2 [1]): 50 to 200 nM
- DC50 (PTPN2 [2]): 50 to 200 nM

SMILES: CC(Nc1cccc2c1C(=O)N(C1CCC(=O)NC1=O)C2=O)c1cn(CCC(=O)Nc2ccc3c(F)c(N4CC(=O)NS4(=O)=O)c(O)cc3c2)nn1 (stereo not shown) [Example 66]
- DC50 (PTPN2 [1]): ≥ 1000 nM
- DC50 (PTPN2 [2]): 200 to 1000 nM

SMILES: Cn1c(=O)n(C2CCC(=O)NC2=O)c2ccc(C3CCN(CCn4cc(-c5ccc6c(F)c(N7CC(=O)NS7(=O)=O)c(O)cc6c5)cn4)CC3)cc21 (stereo not shown) [Example 122, 3-[5-[1-[2-[4-[5-fluoro-7-hydroxy-6-(1,1,4-trioxo-1,2,5-thiadiazolidin-2-yl)-2-naphthyl]pyrazol-1-yl]ethyl]-4-piperidyl]-3-methyl-2-oxo-benzimidazol-1-yl]piperidine-2,6-dione]
- DC50 (PTPN2 [1]): 200 to 1000 nM
- DC50 (PTPN2 [2]): 10 to 50 nM

SMILES: O=C(CCCCOc1ccc2cc(O)c(N3CC(=O)NS3(=O)=O)c(F)c2c1)NCCCc1ccc2c3c(cccc13)C(=O)N2C1CCC(=O)NC1=O (stereo not shown) [Example 111, N-[3-[1-(2,6-dioxo-3-piperidyl)-2-oxo-benzo[cd]indol-6-yl]propyl]-5-[[8-fluoro-6-hydroxy-7-(1,1,4-trioxo-1,2,5-thiadiazolidin-2-yl)-2-naphthyl]oxy]pentanamide]
- DC50 (PTPN2 [1]): 50 to 200 nM
- DC50 (PTPN2 [2]): 10 to 50 nM

SMILES: Cn1nc([C@@H]2CCC(=O)NC2=O)c2ccc(N3CCC(CC(=O)Nc4ccc5c(F)c(N6CC(=O)NS6(=O)=O)c(O)cc5c4)CC3)cc21 [Example 163, 2-[1-[3-[(3S)-2,6-dioxo-3-piperidyl]-1-methyl-indazol-6-yl]-4-piperidyl]-N-[5-fluoro-7-hydroxy-6-(1,1,4-trioxo-1,2,5-thiadiazolidin-2-yl)-2-naphthyl]acetamide]
- DC50 (PTPN2 [1]): 10 to 50 nM
- DC50 (PTPN2 [2]): 10 to 50 nM

SMILES: Cn1c(=O)n(C2CCC(=O)NC2=O)c2ccc(C3CCN(CCC(=O)N4CCC(c5ccc6cc(O)c(N7CC(=O)NS7(=O)=O)c(F)c6c5)C4)CC3)cc21 (stereo not shown) [Example 72, 3-[5-[1-[3-[3-[8-fluoro-6-hydroxy-7-(1,1,4-trioxo-1,2,5-thiadiazolidin-2-yl)-2-naphthyl]pyrrolidin-1-yl]-3-oxo-propyl]-4-piperidyl]-3-methyl-2-oxo-benzimidazol-1-yl]piperidine-2,6-dione]
- DC50 (PTPN2 [1]): 50 to 200 nM
- DC50 (PTPN2 [2]): 10 to 50 nM

SMILES: Cn1c(=O)n(C2CCC(=O)NC2=O)c2ccc(C3CCN(C(=O)Cn4cc(-c5ccc6c(F)c(N7CC(=O)NS7(=O)=O)c(O)cc6c5)cn4)CC3(F)F)cc21 (stereo not shown) [Example 73, 3-[5-[3,3-difluoro-1-[2-[4-[5-fluoro-7-hydroxy-6-(1,1,4-trioxo-1,2,5-thiadiazolidin-2-yl)-2-naphthyl]pyrazol-1-yl]acetyl]-4-piperidyl]-3-methyl-2-oxo-benzimidazol-1-yl]piperidine-2,6-dione]
- DC50 (PTPN2 [1]): 10 to 50 nM
- DC50 (PTPN2 [2]): 10 to 50 nM

SMILES: Cn1c(=O)n(C2CCC(=O)NC2=O)c2ccc(C3CCN(CC(=O)Nc4ccc5c(F)c(N6CC(=O)NS6(=O)=O)c(O)cc5c4)CC3(F)F)cc21 (stereo not shown) [Example 129, 2-[4-[1-(2,6-dioxo-3-piperidyl)-3-methyl-2-oxo-benzimidazol-5-yl]-3,3-difluoro-1-piperidyl]-N-[5-fluoro-7-hydroxy-6-(1,1,4-trioxo-1,2,5-thiadiazolidin-2-yl)-2-naphthyl]acetamide]
- DC50 (PTPN2 [1]): 50 to 200 nM
- DC50 (PTPN2 [2]): 50 to 200 nM

SMILES: Cn1c(=O)n(C2CCC(=O)NC2=O)c2ccc(Nc3ccc(C(=O)NCCOc4ccc5cc(O)c(N6CC(=O)NS6(=O)=O)c(F)c5c4)cc3)cc21 (stereo not shown) [Example 126, 4-[[1-(2,6-dioxo-3-piperidyl)-3-methyl-2-oxo-benzimidazol-5-yl]amino]-N-[2-[[8-fluoro-6-hydroxy-7-(1,1,4-trioxo-1,2,5-thiadiazolidin-2-yl)-2-naphthyl]oxy]ethyl]benzamide]
- DC50 (PTPN2 [1]): 200 to 1000 nM
- DC50 (PTPN2 [2]): 200 to 1000 nM

SMILES: Cn1c(=O)n(C2CCC(=O)NC2=O)c2ccc(-c3cnn(CCC(=O)Nc4ccc5c(F)c(N6CC(=O)NS6(=O)=O)c(O)cc5c4)c3)cc21 (stereo not shown) [Example 173, N-(6-(1,1-dioxido-4-oxo-1,2,5-thiadiazolidin-2-yl)-5-fluoro-7-hydroxynaphthalen-2-yl)-3-(4-(1-(2,6-dioxopiperidin-3-yl)-3-methyl-2-oxo-2,3-dihydro-1H-benzo[d]imidazol-5-yl)-1H-pyrazol-1-yl)propanamide]
- DC50 (PTPN2 [1]): 50 to 200 nM
- DC50 (PTPN2 [2]): 10 to 50 nM
